# Legend:
# Pneumocystis = details: mice; Bartlett et al. 1991; cited from earlier work
# Babesia = details: mice; single doses for tafenoquine; cited from earlier work
# [1] = test system: total anti SARS-CoV-2 spike protein antibody; type: in vivo, human
# COVID-19 disease [2] = details: mild-moderate COVID-19; exploratory analyses; P<0.02; Dow and Smith 2022; cited from earlier work
# [3] = test system: Monocyte chemotactic protein 1 (MCP-1); type: in vivo, human
# SARS-CoV-2 [4] = assay: Nasopharyngeal viral load change from baseline, regression analysis; type: in vivo, human; details: Log10 viral copy number/ml; baseline through Day 5; P 0.8650
# Experimental: NP swabs were collected at Baseline and Day 5 and Log10 viral copy number/ml was determined utilizing the standard commercially available assay from Eurofins. Only samples from patients where valid baseline and Day 5 results were obtained were analyzed. Samples with values below the dynamic range of the assay were assigned a value equivalent to the detection limit. Samples with […] were assigned a value equivalent to half the detection limit. Viremia change from baseline was calculated by subtracting log 10 Day 5 copy number from the log 10 baseline copy number. Log10 Baseline and change from baseline values were used in the analyses.
# Multivariate regression analysis (performed utilizing the standard built-in program in Graphpad Prism 9.3.1) was used to analyze the following dependent variables: Change in NP viral load from baseline through Day 5 (Regression 1) and total anti SARS-CoV-2 antibody change from baseline through Day 14 (Regression 2). The dependent variable data were tested to ensure that they passed at least three of four tests of normality (Anderson-Darling, D'Agostino-Pearson, Shapiro-Wilk and Kolmogorov-Smirnov tests) according to the standard built-in programs in GraphPad. The same independent variables described in Example 6 were utilized. […]
# COVID-19 disease [5] = assay: Phase II clinical trial, time to clinical recovery in mild-moderate COVID-19; type: in vivo, human
# Source text: Laboratory endpoint and patient-level individual symptom data were collected in that study, have not been reported elsewhere, and form the basis for surprising findings about the therapeutic and mechanistic effects of tafenoquine described herein.
# Longitudinal aggregate symptom data for individual patients from Dow and Smith (2022) were examined to determine the number of days required before each patients reported an aggregate symptom score of 2 for four days of more for the first time. This endpoint was not included as a pre-specified analysis in the original study design, and was only recently confirmed to be an endpoint of interest to regulars in mild-moderate COVID-19 disease in standard risk patients. […] A survival curve was generated, and data were analyzed using Graphpad Prism. […] At Day 28, which was the last day of the study, the proportion of patients with persistent COVID-19 symptoms was lower in the tafenoquine arm.
# [6] = in vivo; cited from earlier work
# [7] = test system: blood stages of P. falciparum; details: Baird et al. 2002; McCarthy et al. 2019; cited from earlier work
# SARS-CoV-2 [8] = type: cell-based; details: calculated relative to the CC50 for the 4-day test
# [9] = doses of up to 1200 mg over three days; Green et al 2014; cited from earlier work
# Vero E6 cells = details: 4-day test, mock infected Vero E6 cells
# in vitro = details: African green monkey, CC50, 4-day test, mock infected Vero E6 cells
# [10] = predicted Day 5 values, all group comparisons vs placebo, independent of vaccination or baseline MCP-1
compound,measurement,setting,value
COc1cc(NC(C)CCCN)c2ncccc2c1 (centres unmarked) [Primaquine],cure of Pneumocystis infections,Pneumocystis,must be combined with clindamycin
same,dose that cleared Babesia parasitemia,Babesia,100 mg/kg
COc1cc(C)c2c(Oc3cccc(C(F)(F)F)c3)c(OC)cc(NC(C)CCCN)c2n1 (centres unmarked) [Tafenoquine],effect on total anti-SARS-CoV-2 antibody generation,[1]; P=0.546 as printed,did not affect
same,"Regression 2: Antibodies CFB (unvaccinated), Beta for Treatment",[1]; in vivo,−0.671/
same,"recovery from fever, cough and shortness of breath",COVID-19 disease [2],accelerate recovery
same,"Regression 1: MCP1 Day 5 CFB (Multivariate), Beta for Treatment (TQ = 1, PL = 0)","[3]; Day 5 value − Baseline value, P 0.0093",−74.4/
same,"Regression 2: MCP1 Day 14 CFB for high baseline MCP1, Beta for Treatment","[3]; baseline MCP-1 exceeding 350 units/ml, P 0.3304",78.9/
same,"Regression 3: MCP1 Day 14 CFB for low baseline MCP1, Beta for Treatment","[3]; baseline MCP-1 less than 350 units/ml, P 0.2356",−35.0/
same,"Regression: MCP1 Day 14 CFB (rank-transformed), Beta for Treatment","[3]; human, in vivo",0.584//
same,reduction in Day 5 MCP-1 (absolute),[3]; [10],at least 41
same,reduction in Day 5 MCP-1 (percent),[3]; [10],≥ 10%
same,"Regression 1: MCP1 Day 5 (Univariate), Beta for Treatment","[3]; univariate, P 0.2548",−45.2/
same,"Regression 1: NP Viral Load CFB, Beta for Treatment (TQ = 1, PL = 0)",SARS-CoV-2 [4],−0.0735/
same,median time to clinical recovery,"COVID-19 disease [5]; COVID-19 patients, 200 mg on Days 1, 2, 3 and 10, sustained recovery for four days or more, placebo 16 days",13 days
same,proportion of patients with persistent COVID-19 symptoms at Day 28,"COVID-19 disease [5]; tafenoquine arm vs placebo, Day 28",lower
same,half-life,[6],14 days
same,cure of Pneumocystis infections,Pneumocystis,can be administered as monotherapy to cure
same,activity against the blood stages of P. falciparum,[7],quite effective
same,selectivity index,SARS-CoV-2 [8],14.3
same,dose that cleared Babesia parasitemia,Babesia,20 mg/kg
same,effect on upper limit of 90% confidence interval of the QTC interval,[9],not found to increase
CCN(CCO)CCCC(C)Nc1ccnc2cc(Cl)ccc12 (centres unmarked) [Hydroxychloroquine],CC50,Vero E6 cells,67 µM
same,CC50,in vitro,~55 µM

# From patent US20240165099A1, “METHODS FOR THE TREATMENT AND PREVENTION OF DISEASES OR INFECTIONS WITH MCP-1 INVOLVEMENT BY ADMINISTRATION OF TAFENOQUINE” (60 DEGREES PHARMACEUTICALS LLC, priority 2022, published 2024)
